# Columns and labels:
# Assay in all cases: ≥ marks a high value that may be exact or a test limit, other limits are often not marked, values filed in µg/mL are converted to µM
# [1] = tested on: Acinetobacter baumannii ATCC 19606
# Aspergillus fumigatus = tested on: Aspergillus fumigatus
# Bibersteinia trehalosi = tested on: Bibersteinia trehalosi
# [2] = tested on: Corynebacterium pseudotuberculosis ATCC 19410
# [3] = tested on: Enterococcus faecalis ATCC 29212
# [4] = tested on: Escherichia coli ATCC 25922
# [5] = tested on: Fusobacterium nucleatum ATCC 25586
# [6] = tested on: Klebsiella aerogenes ATCC 13048
# [7] = tested on: Klebsiella pneumoniae ATCC 13883
# Klebsiella pneumoniae = tested on: Klebsiella pneumoniae
# [8] = tested on: Mannheimia haemolytica Serovar 1
# [9] = tested on: Mannheimia haemolytica Serovar 2
# [10] = tested on: Mannheimia haemolytica Serovar 6
# Pasteurella multocida = tested on: Pasteurella multocida
# Pseudomonas aeruginosa = tested on: Pseudomonas aeruginosa
# [11] = tested on: Salmonella enterica subsp. arizonae
# [12] = tested on: Staphylococcus aureus ATCC 29213
# [13] = tested on: Staphylococcus aureus ATCC 43300
# Staphylococcus aureus = tested on: Staphylococcus aureus
# [14] = tested on: Streptococcus mutans Ingbritt
# Bacillus megaterium Bm11 = tested on: Bacillus megaterium Bm11
# Escherichia coli D21 = tested on: Escherichia coli D21
# Escherichia coli ML-35 = tested on: Escherichia coli ML-35
# [15] = tested on: Salmonella enterica subsp. enterica serovar Typhimurium ATCC 14028
# [16] = tested on: Serratia marcescens ATCC 8100
# [17] = tested on: Staphylococcus epidermidis ATCC 12228
# Acinetobacter sp. = tested on: Acinetobacter sp.
# [18] = tested on: Bacillus subtilis ATCC 6633
# [19] = tested on: Escherichia coli ATCC 11775
# Escherichia coli = tested on: Escherichia coli
# [20] = tested on: Pseudomonas aeruginosa ATCC 25668
# [21] = tested on: Aspergillus flavus ATCC 9643
# [22] = tested on: Aspergillus niger ATCC 6275
# [23] = tested on: Candida albicans ATCC 10231
# [24] = tested on: Cryptococcus neoformans ATCC 32045
# [25] = tested on: Listeria monocytogenes CMCC 54002
# [26] = tested on: Saccharomyces cerevisiae ATCC 9763
# [27] = tested on: Salmonella typhimurium CMCC 50013
# [28] = tested on: Shigella dysenteriae CMCC 51302
# [29] = tested on: Streptococcus pyogenes ATCC 12344
# [30] = tested on: Trichophyton rubrum ATCC 28188
# [31] = tested on: Escherichia coli ATCC 35218
# [32] = tested on: Pseudomonas aeruginosa ATCC 27853
# [33] = tested on: Staphylococcus aureus ATCC 25325
# [34] = tested on: Bacillus anthracis Sterne 34F2
# [35] = tested on: Bacillus subtilis ATCC 9372
# [36] = tested on: Burkholderia thailandensis
structure (smiles),measurement,setting,value
CC[C@H](C)[C@H](NC(=O)[C@H](CCCN=C(N)N)NC(=O)[C@H](CCCN=C(N)N)NC(=O)[C@H](CC(C)C)NC(=O)[C@H](CC(N)=O)NC(=O)[C@@H](N)CCCCN)C(=O)N[C@H](C(=O)N[C@@H](CCCN=C(N)N)C(=O)N[C@@H](CCCCN)C(=O)N[C@H](C(=O)N[C@H](C(=O)N[C@@H](Cc1cnc[nH]1)C(=O)N[C@H](C(=O)N[C@H](C(=O)N[C@@H](CCCCN)C(=O)N[C@@H](CCCCN)C(=O)N[C@@H](Cc1ccc(O)cc1)C(=O)NCC(=O)O)[C@@H](C)CC)[C@@H](C)CC)[C@@H](C)CC)[C@@H](C)CC)[C@@H](C)CC [KNLRRIIRKIIHIIKKYG],MIC,[1],2.6 µM
same,MIC,Aspergillus fumigatus,4.42 µM
same,MIC,Bibersteinia trehalosi,1.02 µM
same,MIC,[2],8.84 µM
same,MIC,[3],78.8 µM
same,MIC,[4],9.6 µM
same,MIC,[5],4.2 µM
same,MIC,[6],≥ 45.9 µM
same,MIC,[7],7.7 µM
same,MIC,Klebsiella pneumoniae,0.353 µM
same,MIC,[8],0.663 µM
same,MIC,[9],0.265 µM
same,MIC,[10],0.0884 µM
same,MIC,Pasteurella multocida,0.265 µM
same,MIC,Pseudomonas aeruginosa,0.625 µM
same,MIC,[11],2.96 µM
same,MIC,[12],138 µM
same,MIC,[13],> 250 µM
same,MIC,Staphylococcus aureus,6.63 µM
same,MIC,[14],16.5 µM
CC(C)C[C@H](NC(=O)[C@H](Cc1ccc(O)cc1)NC(=O)[C@@H]1CCCN1C(=O)[C@@H]1CCCN1C(=O)[C@H](CCCN=C(N)N)NC(=O)[C@@H]1CCCN1C(=O)[C@H](CCCN=C(N)N)NC(=O)[C@H](CCCN=C(N)N)NC(=O)[C@@H](N)CCCN=C(N)N)C(=O)N1CCC[C@H]1C(=O)N[C@@H](CCCN=C(N)N)C(=O)N1CCC[C@H]1C(=O)N[C@@H](CCCN=C(N)N)C(=O)N1CCC[C@H]1C(=O)N1CCC[C@H]1C(=O)O [RRRPRPPYLPRPRPP],MIC,Bacillus megaterium Bm11,8 µM
same,MIC,Escherichia coli D21,0.5 µM
same,MIC,Escherichia coli ML-35,1 µM
same,MIC,[15],0.125 µM
same,MIC,[16],4 µM
same,MIC,[17],> 64 µM
CC[C@H](C)[C@H](NC(C)=O)C(=O)N[C@@H](CCCCN)C(=O)N[C@@H](Cc1c[nH]c2ccccc12)C(=O)N[C@@H](C)C(=O)NCC(=O)N[C@@H](CCCCN)C(=O)N[C@@H](Cc1c[nH]c2ccccc12)C(=O)N[C@@H](Cc1c[nH]c2ccccc12)C(=O)N[C@@H](CCCCN)C(=O)N[C@@H](CC(C)C)C(=O)N[C@@H](Cc1ccccc1)C(=O)N[C@@H](CCCCN)C(N)=O [IKWAGKWWKLFK],MIC,Acinetobacter sp.,2.51 µM
same,MIC,[18],2.51 µM
same,MIC,[19],0.629 µM
same,MIC,Escherichia coli,1.26 µM
same,MIC,[20],0.629 µM
CC(C)C[C@H](NC(=O)CN)C(=O)N[C@@H](C)C(=O)N[C@@H](CCCN=C(N)N)C(=O)N[C@@H](C)C(=O)N[C@@H](CC(C)C)C(=O)N[C@H](C(=O)N[C@@H](CCCN=C(N)N)C(=O)N[C@@H](CC(C)C)C(=O)N[C@@H](CC(C)C)C(=O)N[C@@H](CCCN=C(N)N)C(=O)N[C@@H](CCC(N)=O)C(=O)N[C@@H](CC(C)C)C(=O)N[C@H](C(=O)N[C@@H](CCCN=C(N)N)C(=O)N[C@@H](CCC(N)=O)C(=O)N[C@@H](CC(C)C)C(=O)N[C@H](C(=O)N[C@@H](CCCN=C(N)N)C(=O)N[C@@H](C)C(=O)O)[C@@H](C)O)[C@@H](C)O)[C@@H](C)O [GLARALTRLLRQLTRQLTRA],MIC,[21],8 µM
same,MIC,[22],≥ 32 µM
same,MIC,[23],8 µM
same,MIC,[24],16 µM
same,MIC,[25],4 µM
same,MIC,[26],16 µM
same,MIC,[27],2 µM
same,MIC,[28],4 µM
same,MIC,[29],4 µM
same,MIC,[30],≥ 32 µM
CC(C)[C@H](NC(=O)[C@H](Cc1cnc[nH]1)NC(=O)[C@H](C)NC(=O)[C@H](C)NC(=O)[C@H](CCCCN)NC(=O)[C@H](CCCCN)NC(=O)[C@H](Cc1ccccc1)NC(=O)[C@H](Cc1ccccc1)NC(=O)[C@H](CO)NC(=O)CNC(=O)[C@H](Cc1c[nH]c2ccccc12)NC(=O)CN)C(=O)NCC(=O)O [GWGSFFKKAAHVG],MIC,[3],57 µM
same,MIC,[31],≥ 43.6 µM
same,MIC,[32],52 µM
same,MIC,[33],≥ 58 µM
CSCC[C@H](NC(=O)[C@@H](NC(=O)[C@H](CC(N)=O)NC(C)=O)C(C)C)C(=O)N[C@H](C(=O)N[C@@H](Cc1ccc(O)cc1)C(=O)N[C@@H](Cc1c[nH]c2ccccc12)C(=O)N[C@@H](Cc1c[nH]c2ccccc12)C(=O)N[C@@H](CC(C)C)C(=O)N[C@@H](CC(=O)O)C(=O)N1CCC[C@H]1C(=O)N1CCC[C@H]1C(=O)N[C@@H](CC(C)C)C(N)=O)[C@@H](C)O [NVMTYWWLDPPL],MIC,[34],≥ 100 µM
same,MIC,[35],≥ 100 µM
same,MIC,[36],≥ 50 µM

# Source: DBAASP
